The values that follow come from article PMC6037046, “Structural insights into Plasmodium falciparum nicotinamide mononucleotide adenylyltransferase: oligomeric assembly” (Memórias do Instituto Oswaldo Cruz, 2018).

The target of test [1] is 6 x His-Plasmodium falciparum nicotinamide mononucleotide adenylyltransferase (PfNMNAT) recombinant protein (Plasmodium falciparum (FCB2 strain gDNA; ORF identified in strain 3D7)) (UniProt Q8IE38). In words: native gel or EMSA; native PAGE of IMAC eluate (four gels of 6, 8, 10, 12 %T) with Ferguson plot (-Log Kr vs Log MW) against standard proteins. Background: A gel shift assay detects complexes by their altered migration in electrophoresis.

For another test, the target named is T1, 6 x His-PfNMNAT (Plasmodium falciparum, UniProt Q8IE38).
T1 construct: gene PF3D7_1327600; full ORF in pET100/D-TOPO, N-terminal 6xHis tag kept, E. coli Codon Plus (DE3) RIL, ~28 kDa
T1 sequence (Q8IE38 1-204): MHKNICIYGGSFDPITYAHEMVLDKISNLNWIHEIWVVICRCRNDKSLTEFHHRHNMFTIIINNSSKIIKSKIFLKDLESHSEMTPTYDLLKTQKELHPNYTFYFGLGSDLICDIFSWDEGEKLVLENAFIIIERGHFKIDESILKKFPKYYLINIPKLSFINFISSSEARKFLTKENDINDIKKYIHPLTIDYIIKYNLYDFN
In words: RP-HPLC of NAD formed (direct assay); also ADH-coupled assay at […] nm. It is filed as biochemical. The following applies: 1.25 mM NMN, 1.25 mM ATP, 10 mM MgCl2, 25 mM HEPES/KOH pH 7.4, 37 C.

Broadly, the stoichiometry N is the number of molecules, sites or subunits per partner or assembly. As for “6 x His-Plasmodium falciparum nicotinamide mononucleotide adenylyltransferase (PfNMNAT) recombinant protein (from UniProt Q8IE38 1-204) (enzyme)”, the stoichiometry N in test [1] is 2.
In the case of `Nc1ncnc2c1ncn2[C@@H]1O[C@H](COP(=O)(O)OP(=O)(O)OP(=O)(O)O)[C@@H](O)[C@H]1O` [ATP], the “RP-HPLC of NAD formed (direct assay); also ADH-coupled assay at 340 nm” value on 6 x His-PfNMNAT was “direct enzymatic assays that measured NAD synthesis from NMN and ATP”.
On the same count and under the same terms, under `NC(=O)c1ccc[n+]([C@@H]2O[C@H](COP(=O)(O)O)[C@@H](O)[C@H]2O)c1` [NMN, nicotinamide mononucleotide] stands “direct enzymatic assays that measured NAD synthesis from NMN and ATP”.
